These results are taken from patent publication US4474777A, “Benzodiazepine derivatives and their pharmaceutical use” (Hoffmann-La Roche Inc., priority 1982, dated 1984).

The test system of data set [1] is intestinal resorption of cholesterol. In words: inhibition of the intestinal resorption of cholesterol (CHORES), radioactive cholesterol test feed, faeces radioactivity. In kind it is in vivo, normal female albino rats. To be noted: rats, 100 μmol/kg p.o.; faeces collected for three days; untreated control = 100%. How it is done: The substances to be investigated are administered to groups each comprising 6 normal female albino rats (body weight about 70 g) by means of a probang. Immediately thereafter the animals received by means of a probang a test feed containing a radioactive cholesterol. Thereafter, the faeces is collected for three days, freeze-dried and pulverized, and an aliquot is burnt in order to determine the radioactivity of the faeces. Untreated control animals excrete about 40-50% of the radioactive cholesterol taken up with the feed. The radioactive cholesterol which is not excreted is regarded as the resorbed cholesterol, the amount of resorbed cholesterol in the untreated control animals being arbitrarily fixed as 100%. Animals which have been treated with a substance inhibiting the intestinal resorption of cholesterol show a lower resorption of radioactive cholesterol than untreated control animals. The cholesterol resorption (CHORES) is expressed in percentages of the cholesterol resorption of untreated control animals.
(§1) In the following Table there are given the results obtained with representative products provided by the invention. There are given for each of the compounds listed therein the dosage administered (in μmol/kg p.o.) as well as the cholesterol resorption (CHORES) determined in percentages of the cholesterol resorption of untreated control animals. Moreover, the Table contains information concerning the acute toxicity of the compounds investigated (LD50 in mg/kg in the case of single oral administration to mice).

Data set [2] is described as follows: acute toxicity, single oral administration to mice. The following applies: mouse, in vivo, single oral administration (p.o.).
Description: as §1

Each structure is given as a SMILES string. Bounds are passed on as bounds.

On to `C[C@@H]1N=C(c2ccccc2Cl)c2c(ccc(NC(=O)NCC(O)CO)c2Br)N(C)C1=O` (stereo partly drawn) [NHCH2 CH(OH)CH2 OH, 1-[(S)-6-bromo-5-(o-chlorophenyl)-2,3-dihydro-1,3-dimethyl-2-oxo-1H-1,4-benzodiazepin-7-yl]-3-(2,3-dihydroxypropyl)urea], for which the “CHORES (cholesterol resorption in percentages of the cholesterol resorption of untreated control animals)” value in data set [1] is 24%. On the same count and under the same terms, then `C[C@@H]1N=C(c2ccccc2Cl)c2c(ccc(NC(=O)N3CCCC(O)C3)c2Br)N(C)C1=O` (some centres unmarked), with 44%. The LD50 is the dose expected to kill half of the subjects tested. Low readings indicate greater toxicity, high ones lower toxicity. Regarding `C[C@@H]1N=C(c2ccccc2Cl)c2c(ccc(NC(=O)NC(C)(CO)CO)c2Br)N(C)C1=O` [NHC(CH3)(CH2 OH)2, 1-[(S)-6-bromo-5-(o-chlorophenyl)-2,3-dihydro-1,3-dimethyl-2-oxo-1H-1,4-benzodiazepin-7-yl]-3-[1,1-bis(hydroxymethyl)ethyl]urea], in data set [1], the “CHORES (cholesterol resorption in percentages of the cholesterol resorption of untreated control animals)” value came to 31%. This compound showed an LD50 in data set [2] above 5000 mg/kg. For the compound `C[C@@H]1N=C(c2ccccc2Cl)c2c(ccc(NC(=O)NC(CO)(CO)CO)c2Br)N(C)C1=O` [NHC(CH2 OH)3, 1-[(S)-6-bromo-5-(o-chlorophenyl)-2,3-dihydro-1,3-dimethyl-2-oxo-1H-1,4-benzodiazepin-7-yl]-3-[2-hydroxy-1,1-bis(hydroxymethyl)ethyl]urea], the “CHORES (cholesterol resorption in percentages of the cholesterol resorption of untreated control animals)” value in data set [1] turned out to be 30%. Besides, the LD50 in data set [2] is above 5000 mg/kg. With `C[C@@H]1N=C(c2ccccc2Cl)c2c(ccc(NC(=O)NC3CCC(O)CC3)c2Br)N(C)C1=O` (some centres unmarked), the “CHORES (cholesterol resorption in percentages of the cholesterol resorption of untreated control animals)” value in data set [1] worked out at 34%. Take `C[C@@H]1N=C(c2ccccc2Cl)c2c(ccc(NC(=O)NCC3COC(C)(C)O3)c2Br)N(C)C1=O` (some centres unmarked): the “CHORES (cholesterol resorption in percentages of the cholesterol resorption of untreated control animals)” value in data set [1] is listed as 25%.
